Structures are written as SMILES.

This is an account of results in patent US12415184B2, “Device for analysis of cellular motility” (MOTILITYCOUNT APS, priority 2013, dated 2025).

The subject of this series is sperm cells. Kind of series: effects of detection agents on the motility of sperm cells (microscopic analysis). It is filed as cell-based. To be noted: 60 min, ambient temperature; for Cells: cells in total / Cells: motile cells: 50:50 with sperm sample 60/72. How it is done:
The possible effects of two detection agents, MTT and crystal violet, on the motility of sperm cells were tested. Stock solutions of MTT and crystal violet of 5 mg/ml and 1 mg/ml, respectively, were prepared, and these were diluted two-fold serially. The detection agent solutions were mixed with sperm samples comprising 60 million motile cells per milliliter and 72 million cells per milliliter in total (denoted 60/72) in a 50:50 ratio and the mixtures were incubated for 60 min at ambient temperature before analysing the cells microscopically.

For the compound `CN(C)c1ccc(C(=C2C=CC(=[N+](C)C)C=C2)c2ccc(N(C)C)cc2)cc1` [Crystal violet, crystal violet], the “Cells: cells in total” value (Crystal violet 0.125 mg/ml) is listed as 56 million per milliliter, the “Cells: cells in total” value (Crystal violet 0.25 mg/ml) is recorded as 56 million per milliliter, the “Cells: cells in total” value (Crystal violet 0.5 mg/ml) was 43 million per milliliter and the “Cells: cells in total” value (Crystal violet 1 mg/ml) is reported as 63 million per milliliter. Besides, the “Cells: motile cells” value was found to be 37 million per milliliter (Crystal violet 0.125 mg/ml), 32 million per milliliter (Crystal violet 0.25 mg/ml), 27 million per milliliter (Crystal violet 0.5 mg/ml) and 40 million per milliliter (Crystal violet 1 mg/ml). In addition, the “ratio of motile versus non-motile cells (% motile)” value (concentrations of Table 3) is recorded as “not affected”.
